# Test results published in paper PMC6171423, “Benzofuran–appended 4-aminoquinazoline hybrids as epidermal growth factor receptor tyrosine kinase inhibitors: synthesis, biological evaluation and molecular docking studies” (Journal of Enzyme Inhibition and Medicinal Chemistry, 2018).
# Where two headings read alike, the source gives them in different places.
# Legend:
# [1] = test system: human lung cancer (A549) cells; experiment: cells; conditions: A549, 48 h, read-out: Cancer cells LC50 A549
# Procedure: (§5) The cytotoxic activities of the compounds were screened against the C3A/HepG2 human liver cells, human colorectal tumor (Caco-2) cells, the human lung carcinoma (A549) and the cervical cancer (HeLa) cells. The lethal concentration was determined using the 3–(4,5-dimethylthiazol)-2,5-diphenyl tetrazolium bromide (MTT) assay previously developed by Mosmann[20]. The cells were maintained in Dubelsco minimal essential medium (DMEM, Highveld Biological, South Africa) supplemented with 10% fetal calf serum (Adcock-Ingram, Midrand, South Africa) and sodium pyruvate for C3A liver cells. Cell suspensions were prepared from confluent monolayer cultures and plated at a density of 0.1 × 10^6 cells into each well of 96-well microtitre plates. For cell attachment, plates were incubated for 24 h at 37 °C in a 5% CO2 incubator prior to the exposure. The compounds were dissolved in DMSO (5 mg/mL) and appropriate dilutions were prepared, added to the wells and incubated for 48 h. Doxorubicin hydrochloride (Pfizer Laboratories, Sandton, South Africa) was used as a positive control while DMSO was the negative control. After incubation for 48 h, the wells were rinsed with 150 µL of phosphate buffered saline PBS (Sigma-Aldrich, GmBH, Schnelldorf, Germany) and 200 µL of fresh medium was dispensed into the wells. MTT was dissolved in PBS (30 µL) then added to each well and the contents were incubated for 4 h at 37 °C. The medium was removed and MTT formazan crystals were dissolved in 50 µL DMSO. The amount of MTT reduction was measured immediately by detecting the absorbance using a BioTek microplate reader (BioTek Synergy, Analytical and Diagnostic Products, Johannesburg, South Africa) at a wavelength of 570 nm. Each dilution of the test sample was assayed in quadruplicate and the experiments were repeated three times. The percentage of cell viability and the LC50 values for each compound tested were calculated as described before[10].
# [2] = test system: colorectal adenocarcinoma (Caco-2) cells; experiment: cells; conditions: Homo sapiens, Caco-2, 48 h, read-out: Cancer cells LC50 Caco-2
# Procedure: as §5
# [3] = test system: hepatocellular carcinoma (C3A; HepG2/C3A) cells; experiment: cells; conditions: Homo sapiens, 48 h
# Procedure: as §5
# [4] = test system: cervical cancer (HeLa) cells; experiment: cells; conditions: Homo sapiens, 48 h, read-out: Cancer cells LC50 HeLa
# Procedure: as §5
# human EGFR (EGFR-TK) = human EGFR (EGFR-TK) (Homo sapiens, UniProt P00533); experiment: Inhibition of EGFR-TK (ELISA)
# C3A cells = experiment: Annexin V/PI apoptosis assay by flow cytometry, C3A; type: cell-based, human; conditions: 5 and 12.5 µM, 24 h
# Procedure: (§1) Apoptotic cells were quantified using flow cytometry. The C3A or Caco-2 cells were cultured in 24 well plates and each was then treated with compound 10d or 10j at concentrations 5, 12.5 and 25 µM against doxorubicin hydrochloride (0.20 µM) as a reference standard, respectively. After the cells were incubated for 24 h, both treated and untreated cells were harvested, washed two times with ice PBS and then adjusted at a density of 1 x 10^6 cells/sample. Cells were harvested and transferred into plastic flow tubes (BD Biosciences, South Africa). The cells were, in turn, stained with Annexin-V-FUOS staining kit (Roche, Mannheim, Germany) according to the manufacturer’s instructions. The cells were analyzed using Becton, Dickinson and Company FACS Accuri flow cytometer.
# (§2) We selected compounds 10d and 10j to evaluate whether they induce apoptosis in the C3A and Caco-2 cell lines against doxorubicin hydrochloride as a reference standard, respectively. The population of apoptotic cells was determined by means of Annexin-V and propium iodide (PI) double staining by flow cytometry, which is a useful tool for evaluation of molecular and morphological events that take place during cell death and cell proliferation. […]
# [5] = test system: Human Caspase-3 (Asp175) activity in C3A cells; experiment: Caspase-3 colorimetric assay, C3A; type: cell-based; conditions: 24 h, Gefitinib as reference
# Procedure: (§3) Caspase-3 activity was detected by means of Caspase-3 Colorimetric Assay Kit (Abcam, Cambridge, MA, USA). The cells were cultured in 24 well plates and treated for 24 h. The cells were then washed with PBS buffer and lysed on ice. The experiments were carried out according to the manufacturer’s instructions. Optical density was measured at absorbance of 450 nm using the BioTek microplate reader. The concentration of active Caspase-3 (Asp 175) were measured in duplicates and interpolated from the active caspase-3 (Asp 175) standard curve and corrected for sample dilution.
# (§4) A major biochemical feature of apoptosis is the activation of caspases (caspase-2, -3, -6, -7, -8, -9, and -10), which play a central role in the morphological changes associated with apoptosis. Activation of caspase-3, for example, is critically important for the induction of apoptotic pathways. Consequently, we evaluated compounds 10d and 10j for potential to induce caspase-3 activation in C3A and Caco-2 cells using Gefitinib as a reference standard (Figure 4).
# [6] = test system: hepatocellular carcinoma (C3A; HepG2/C3A) cells; conditions: human, 48 h
# Procedure: as §5
# Caco-2 cells = experiment: Annexin V/PI apoptosis assay by flow cytometry, Caco-2; type: cell-based, human; conditions: 5 and 12.5 µM, 24 h
# Procedure: as §1, §2
# [7] = test system: Human Caspase-3 (Asp175) activity in Caco-2 cells; experiment: Caspase-3 colorimetric assay, Caco-2; type: cell-based; conditions: 24 h, Gefitinib as reference
# Procedure: as §3, §4
# [8] = read-out: Cancer cells LC50 C3A
# [9] = read-out: IC50 against EGFR-TK, ELISA, purified EGFR
# Sequence of human EGFR (EGFR-TK) (P00533 25-1210): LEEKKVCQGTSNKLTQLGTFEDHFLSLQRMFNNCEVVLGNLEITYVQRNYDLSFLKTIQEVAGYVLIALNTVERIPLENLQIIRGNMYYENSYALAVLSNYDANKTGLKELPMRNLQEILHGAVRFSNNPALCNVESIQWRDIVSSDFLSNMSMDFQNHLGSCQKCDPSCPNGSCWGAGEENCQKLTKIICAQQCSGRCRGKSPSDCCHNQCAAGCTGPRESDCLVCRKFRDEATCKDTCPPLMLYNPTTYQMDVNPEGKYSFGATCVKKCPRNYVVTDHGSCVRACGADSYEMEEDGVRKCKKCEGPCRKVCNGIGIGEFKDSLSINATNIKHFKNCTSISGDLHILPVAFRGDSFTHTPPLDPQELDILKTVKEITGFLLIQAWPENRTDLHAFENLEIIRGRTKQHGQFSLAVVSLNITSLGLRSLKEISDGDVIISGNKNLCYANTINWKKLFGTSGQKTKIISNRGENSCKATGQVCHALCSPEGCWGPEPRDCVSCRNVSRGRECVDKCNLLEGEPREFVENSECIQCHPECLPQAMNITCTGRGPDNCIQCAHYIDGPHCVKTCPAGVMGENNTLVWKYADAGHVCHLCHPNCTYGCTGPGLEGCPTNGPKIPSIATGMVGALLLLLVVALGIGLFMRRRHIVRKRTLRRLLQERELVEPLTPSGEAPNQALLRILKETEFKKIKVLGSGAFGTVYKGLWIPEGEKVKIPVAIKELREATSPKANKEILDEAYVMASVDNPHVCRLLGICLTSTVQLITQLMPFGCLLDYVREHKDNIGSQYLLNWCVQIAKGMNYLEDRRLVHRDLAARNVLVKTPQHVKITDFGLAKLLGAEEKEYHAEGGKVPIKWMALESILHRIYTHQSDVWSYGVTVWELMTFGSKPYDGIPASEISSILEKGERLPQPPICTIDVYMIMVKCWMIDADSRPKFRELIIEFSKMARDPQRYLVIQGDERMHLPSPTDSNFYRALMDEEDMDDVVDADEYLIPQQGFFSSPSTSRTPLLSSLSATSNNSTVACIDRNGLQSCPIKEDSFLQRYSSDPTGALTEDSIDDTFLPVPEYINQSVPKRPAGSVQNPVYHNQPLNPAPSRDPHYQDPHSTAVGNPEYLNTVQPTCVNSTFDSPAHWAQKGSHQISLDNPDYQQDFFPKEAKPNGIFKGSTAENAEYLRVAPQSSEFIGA
Structure (SMILES),CC50 [1],CC50 [2],"CC50 [3, 8]",CC50 [4],IC50 (human EGFR (EGFR-TK)),induction of apoptosis (C3A cells),caspase-3 activation [5],IC50 (human EGFR (EGFR-TK); [9]),CC50 [6],"CC50 ([3]; read-out: Cancer cells LC50 C3A, MTT, 48 h, C3A)",induction of apoptosis (Caco-2 cells),caspase-3 activation [7]
"Fc1ccc(-c2nc(Nc3cc(Br)cc4cc(-c5ccc(F)cc5)oc34)c3cc(Br)ccc3n2)cc1 [Compound 10c, 6-Bromo-N-(5-bromo-2–(4-fluorophenyl)benzofuran-7-yl)-2–(4-fluorophenyl)quinazolin-4-amine]",52.6 ± 0.2 µM,98.8 ± 0.02 µM,> 100 µM,11.4 ± 0.56 µM,0.0522 ± 0.00018 µM,–,–,–,–,–,–,–
"Clc1ccc(-c2nc(Nc3cc(Br)cc4cc(-c5ccccc5)oc34)c3cc(Br)ccc3n2)cc1 [Compound 10f, 6-Bromo-N-(5-bromo-2-phenylbenzofuran-7-yl)-2–(4-chlorophenyl)quinazolin-4-amine]",48 ± 0.1 µM,75 ± 0.02 µM,73.9 ± 0.02 µM,15.4 ± 0.45 µM,–,–,–,–,–,–,–,–
"Fc1ccc(-c2nc(Nc3cc(Br)cc4cc(-c5cccc(Cl)c5)oc34)c3cc(Br)ccc3n2)cc1 [Compound 10d, 6-Bromo-N-(5-bromo-2–(3-chlorophenyl)benzofuran-7-yl)-2–(4-fluorophenyl)quinazolin-4-amine]",65.1 ± 0.12 µM,47.7 ± 0.01 µM,9 ± 0.01 µM,22.1 ± 1.1 µM,–,induced apoptosis,induce apoptosis through activation of caspase-3,0.0293 ± 2e-05 µM,–,–,–,–
"COc1cc2ncnc(Nc3ccc(F)c(Cl)c3)c2cc1OCCCN1CCOCC1 [Gefitinib, reference compound]",51.3 ± 0.17 µM,–,–,98.8 ± 0.56 µM,–,–,–,–,5 ± 0.04 µM,5.01 µM,–,–
"Fc1ccc(-c2nc(Nc3cc(Br)cc4cc(-c5ccccc5)oc34)c3cc(Br)ccc3n2)cc1 [Compound 10a, 6-Bromo-N-(5-bromo-2-phenylbenzofuran-7-yl)-2–(4-fluorophenyl)quinazolin-4-amine]",64.7 ± 0.11 µM,96.3 ± 0.1 µM,81 ± 0.03 µM,17.6 ± 0.39 µM,0.1113 ± 0.00042 µM,–,–,–,–,–,–,–
"Fc1ccc(-c2nc(Nc3cc(Br)cc4cc(-c5cccc(F)c5)oc34)c3cc(Br)ccc3n2)cc1 [Compound 10b, 6-Bromo-N-(5-bromo-2–(3-fluorophenyl)benzofuran-7-yl)-2–(4-fluorophenyl)quinazolin-4-amine]",54.3 ± 0.19 µM,83.9 ± 0.07 µM,90.1 ± 0.02 µM,47 ± 0.38 µM,–,–,–,0.1225 ± 0.0005 µM,–,–,–,–
"Fc1ccc(-c2cc3cc(Br)cc(Nc4nc(-c5ccc(Cl)cc5)nc5ccc(Br)cc45)c3o2)cc1 [Compound 10h, 6-Bromo-N-(5-bromo-2–(4-fluorophenyl)benzofuran-7-yl)-2–(4-chlorophenyl)quinazolin-4-amine]",74.1 ± 0.21 µM,49.1 ± 0.01 µM,> 100 µM,28.6 ± 1.12 µM,–,–,–,0.1257 ± 0.00052 µM,–,–,–,–
"Fc1cccc(-c2cc3cc(Br)cc(Nc4nc(-c5ccc(Cl)cc5)nc5ccc(Br)cc45)c3o2)c1 [Compound 10g, 6-Bromo-N-(5-bromo-2–(3-fluorophenyl)benzofuran-7-yl)-2–(4-chlorophenyl)quinazolin-4-amine]",78.5 ± 0.15 µM,94.4 ± 0.02 µM,79.1 ± 0.01 µM,53.5 ± 4.46 µM,–,–,–,0.1329 ± 0.00055 µM,–,–,–,–
"Fc1ccc(-c2nc(Nc3cc(Br)cc4cc(-c5ccc(OC(F)(F)F)cc5)oc34)c3cc(Br)ccc3n2)cc1 [Compound 10e, 6-Bromo-N-(5-bromo-2–(4-(trifluoromethoxy)phenyl)benzofuran-7-yl)-2–(4-fluorophenyl) quinazolin-4-amine]",97.6 ± 0.07 µM,65.2 ± 0.1 µM,> 100 µM,23.4 ± 0.49 µM,–,–,–,0.0311 ± 0.00012 µM,–,–,–,–
"Clc1ccc(-c2nc(Nc3cc(Br)cc4cc(-c5cccc(Cl)c5)oc34)c3cc(Br)ccc3n2)cc1 [Compound 10i, 6-Bromo-N-(5-bromo-2–(3-chlorophenyl)benzofuran-7-yl)-2–(4-chlorophenyl)quinazolin-4-amine]",86.6 ± 0.16 µM,33.5 ± 0.1 µM,68.2 ± 0.02 µM,75.1 ± 5.25 µM,–,–,–,0.0902 ± 0.00034 µM,–,–,–,–
"FC(F)(F)Oc1ccc(-c2cc3cc(Br)cc(Nc4nc(-c5ccc(Cl)cc5)nc5ccc(Br)cc45)c3o2)cc1 [Compound 10j, 6-Bromo-N-(5-bromo-2–(4-(trifluoromethoxy)phenyl)benzofuran-7-yl)-2–(4-chlorophenyl) quinazoline-4-amine]",47.4 ± 0.07 µM,18.4 ± 0.07 µM,> 100 µM,28.1 ± 0.79 µM,–,–,–,0.0615 ± 1e-05 µM,–,–,induced apoptosis,induce apoptosis through activation of caspase-3
